Here are results for four compounds from patent US9598434B2, “Benzazepine compound” (Astellas Pharma Inc., priority 2010, dated 2017).

One data set deals with T1, human 5-HT2C receptor (Homo sapiens, UniProt P28335).
T1 construct: expressed in transfected cells
T1 sequence (P28335 33-458): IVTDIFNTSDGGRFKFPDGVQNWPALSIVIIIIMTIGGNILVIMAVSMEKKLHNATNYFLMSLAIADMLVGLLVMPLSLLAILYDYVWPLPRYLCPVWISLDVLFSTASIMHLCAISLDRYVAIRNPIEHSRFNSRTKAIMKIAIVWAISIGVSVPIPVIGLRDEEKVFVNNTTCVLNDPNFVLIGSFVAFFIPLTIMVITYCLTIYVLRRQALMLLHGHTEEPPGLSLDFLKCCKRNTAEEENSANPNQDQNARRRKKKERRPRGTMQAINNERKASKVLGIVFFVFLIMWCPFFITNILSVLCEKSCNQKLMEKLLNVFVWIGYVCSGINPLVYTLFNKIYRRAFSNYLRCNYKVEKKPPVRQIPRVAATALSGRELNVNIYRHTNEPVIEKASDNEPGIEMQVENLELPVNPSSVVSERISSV
Put plainly: Evaluation of 5-HT2C receptor agonist activity (intracellular calcium increase, FLIPR, CHO cells stably expressing the receptor). It is filed as cell-based. To be noted: for EC50: CHO cells stably expressing INI type human 5-HT2C receptor, intracellular Ca increase, logistic regression, read-out: 5-HT2C agonist activity EC50; for Emax: CHO, read-out: 5-HT2C agonist activity Emax. On the procedure: The agonist activity of the compound of the formula (I) on the 5-HT2C receptor was confirmed by the method shown below.
The human 5-HT2C receptor agonist activity was evaluated by measuring the increase of the ligand-dependent intracellular calcium concentration. CHO cells which stably expressing a human 5-HT2C receptor were used. The receptor-expressing cells were prepared by transfecting the genes of the human 5-HT2C receptor (Accession numbers: AF498983 (5-HT2C)) into CHO cells (dihydrofolic acid-deficient strain, DS Pharma Biomedical Co., Ltd.)) using a pEF-BOS vector (Nucleic Acids Research, vol. 18, No. 17). After transcription, the 5-HT2C is known to be subjected to RNA editing to cause differences in three kinds of amino acids, resulting in fourteen receptor isoforms. Among them, cells stably expressing an INI type of 5-HT2C receptor which had not been subjected to editing were used. Cells used for evaluation were cultured in a 10% fetal bovine serum (FBS)-containing medium (trade name: α-MEM, Invitrogen) at 37° C. and 5% carbon dioxide. On the day before the evaluation, the cells were suspended in a serum-free medium (trade name: CD-CHO, Invitrogen) containing 8 mM L-glutamine (trade name: L-glutamine 200 mM, Invitrogen, added to the medium at a final concentration of 8 mM) and dispensed into a 96-well poly-D-lysine-coated plate (trade name: Biocoat PDL96W Black/Clear, Japan Becton, Dickinson and Company)) at 4×10^4 cells/well and cultured at 37° C. and 5% carbon dioxide overnight. A solution including a washing solution (mixture of Hank's Balanced Salt Solution (HBSS)-sodium hydroxide (NaOH), 20 mM 2-[4-(2-hydroxyethyl)-1-piperazinyl]ethanesulfonic acid (HEPES)-sodium hydroxide (NaOH), 2.5 mM probenecid, and 0.1% bovine serum albumin (BSA)), and a 4 μM fluorescent reagent (trade name: Fluo4-AM, Dojindo Co., Ltd.) was used as a loading buffer and the medium of the 96-well plate which had been cultured overnight was replaced with a loading buffer. After leaving to stand (with light-shielding) at room temperature for 3 hours, the cells were washed with a plate washer (trade name: ELx405, BioTek Instruments, Inc.) in which a washing solution had been set up. The plates of the washed cells were set up in a system for measuring a calcium (Ca) concentration in a cell (trade name: FLIPR, Molecular Devices, Inc.). In this device, a test compound that had been dissolved in dimethyl sulfoxide and diluted in the washing solution at a predetermined concentration was added and set up to measure a change in the Ca concentrations in a cell. The difference between a maximum value and a minimum value in the change of the intracellular Ca concentration was determined and kept as measurement data.
Taking the maximum reaction of the 5-HT (agonist action with addition of 5-HT 10 μM) as 100% and the reaction of a solvent alone as 0%, the efficacy (Emax (%)) and potency (EC50 (nM)) of the present invention compound to the maximum reaction of the 5-HT were calculated with a logistic regression method.
For orientation: Calcium assays in cells follow changes in intracellular calcium, usually with a dye or a luminescent sensor.

Data set [1] relates to Hartley female guinea pigs. Briefly: Measurement of external urethral sphincter electromyography. The data set is classed as in vivo, guinea pig. To be noted: Cavia porcellus; intravenous administration at 3 mg/kg; urethane-anesthetized guinea pigs; activity after solvent taken as 100%; read-out: external urethral sphincter electromyography activity. The source says:
The activating action of the compound of the formula (I) on the urethral sphincter electromyography was confirmed with the method shown below.
Hartley female guinea pigs with a body weight of 250 to 350 g were anesthetized with urethane (Sigma). The guinea pigs were fixed in a supine position and catheters (PE-50; Clay Adams) for administration of test compounds were inserted into the jugular vein. Further, a catheters (PE-160; Clay Adams), for an infusion of physiological saline into bladder and measurement of the intravesical pressure, were inserted through an incision into the dome of the bladder. Further, in order to measure the external urethral sphincter electromyography, two electrodes were inserted into both the left and right sides of the urethral opening to the urethral sphincter. The electrodes for measuring base voltages were placed under the skin of the hind part. The bladder catheter was branched over a three-way stopcock, and one was connected with a 50 mL syringe (Terumo) fixed to an infusion pump (Terumo). The other was connected to a pressure transducer (DX-100; Nihon Kohden Corporation) to transfer the signal of the transducer through an amplifier (AP-630G; Nihon Kohden Corporation) and a data acquisition system (PowerLab; AD Instruments) to a computer and record on a hard disk. The electrodes for electromyography measurement were connected to a control unit (JB-101J; Nihon Kohden Corporation) to transfer the signal through an amplifier (AP-651J; Nihon Kohden Corporation) and a data acquisition system (PowerLab; AD Instruments) to a computer and record on a hard disk. Further, the data were analyzed on the computer using a software (Chart; AD Instruments). […] The electromyography activity was analyzed by taking the lowest potential amplitude as a standard during the stabilization period and using the firing frequency over the standard amplitude as an indicator. At internals between the respective urinations (urine filling phase), the activity of the urethral sphincter electromyography was analyzed and its average value was calculated. After the stabilization period, the solvent and the test compound were administered at an increased dose at an interval of 40 minutes through the catheter placed into the jugular vein. The urethral sphincter electromyography activity after the administration of the solvent was taken as 100% and the urethral sphincter electromyography activity after the administration of the test compound was denoted as a percentage (%) of the electromyography activity after the administration of the solvent.

The compound `Cc1cccc(CN2CCOc3cc4c(c(C5CC5)c32)CCNCC4)c1.O=C(O)/C=C/C(=O)O` [Example 277] came in with a melting point of 192 to 195 °C. In addition, at human 5-HT2C receptor, the concentration for a half-maximal effect (EC50) is 2.3 nM and the maximal effect (Emax) was 95%. Besides, in data set [1], the response vs control in vivo at 3 mg/kg was not below 200%.

`Clc1cccc(CN2CCOc3cc4c(c(C5CC5)c32)CCNCC4)c1.O=C(O)CCC(=O)O` [Example 258] registered a melting point of 139 to 141 °C. Moreover, on human 5-HT2C receptor, the EC50 came out at 1.9 nM and the Emax was 97%. Further, the response vs control in vivo at 3 mg/kg in data set [1] was not below 200%.

For `Fc1cc(F)cc(CN2CCOc3cc4c(c(C5CC5)c32)CCNCC4)c1.O=C(O)/C=C/C(=O)O` [Example 313], the melting point was 191 to 194 °C. In addition, on human 5-HT2C receptor, the concentration giving a half-maximal response (EC50) was 4.2 nM and the Emax is 97%. Also, the response vs control in vivo at 3 mg/kg in data set [1] was not below 200%.

For the compound `Fc1ccc(Cl)cc1CN1CCOc2cc3c(c(C4CC4)c21)CCNCC3.O=C(O)/C=C/C(=O)O` [Example 290], the melting point fell in the range of 165 to 168 °C. Moreover, on human 5-HT2C receptor, the 50% effective concentration (EC50) was 3.8 nM and the Emax stood at 93%. Moreover, in data set [1], the response vs control in vivo at 3 mg/kg is not below 200%.

Broadly, the EC50 is the midpoint of the concentration-response curve. By Emax is commonly meant the size of the effect at its maximum, as opposed to the concentration needed. Usually melting point stands for the temperature, or range, at which the solid turns liquid.
